Reference: patent US9889146B2, “Benzoxaborole compounds and uses thereof” (priority 2012, dated 2018)
Values after ≈ are worked out from the molar mass of the structure shown. Like-named read-outs stand apart in the source and are kept apart here.

Columns and labels:
Format in all cases: cell-based
[1] = system: E. coli ATCC 25922, K. pneumoniae ATCC 13883, and P. aeruginosa ATCC 27853; assay: Spontaneous frequency of resistance, three strains summarised
Procedure: (§1) Spontaneous Resistance Frequency was determined in vitro for GSK2251052 and the resistance mutants in E. coli ATCC 25922, K. pneumoniae ATCC 13883, and P. aeruginosa ATCC 27853 strains were characterized. GSK2251052 was prepared as described in U.S. Pat. No. 7,816,344 (the entire contents of which are hereby incorporated by reference herein). LB broth, Mueller Hinton II broth (adjusted), and Difco noble agar were obtained from Becton Dickinson (Cockeysville, Md., USA). M9 minimal broth containing 1×M9 salt, 0.5 μg/ML thiamine, 1 mM MgSO4, 0.1 mM CaCl2, 2% glucose, was obtained from Teknova (Hollister, Calif., USA). Antibacterial agents ciprofloxacin, ceftazidime, chloramphenicol, gentamycin, kanamycin, polymixin B, tobramycin and trimethoprim, and amino acids were obtained from Sigma Chemicals (St. Louis, Mo., USA). Strains were obtained from ATCC (Manassas, Va., USA).
Selection of resistance to GSK2251052 was attempted by spreading various amounts of bacteria onto MHBII noble agar plates containing 4×MIC (minimum inhibitory concentration) or 10×MIC of GSK2251052. Colonies were counted after 24 hours and 48 hours incubation at 37° C. […] Frequency of resistance was determined by dividing the number of resistant mutants by the total number of cells plated as determined by plating dilutions of the overnight culture on LB plates.

[2] = system: Enterobacter aerogenes (AmpC); assay: microbe, parasite or virus in culture; settings: Klebsiella aerogenes
[3] = system: E. coli (WT); assay: microbe, parasite or virus in culture; settings: Escherichia coli, E. coli (WT)
[4] = system: Morganella morganii (AmpC); assay: microbe, parasite or virus in culture; settings: Morganella morganii
[5] = system: E. coli clinical isolates from subject E. coli 1; assay: GSK2251052 MIC of clinical isolates, subject E. coli 1; settings: Escherichia coli, read-out: GSK2251052 MIC GSK results
Procedure: The E. coli and P. mirabilis strains were cultured on Trypticase Soy Agar/5% blood plates (Becton Dickinson BBL), in cation adjusted Mueller-Hinton II Broth, or in M9 minimal salts (Becton Dickinson) broth containing 0.4% glucose and 200 uM MgSO4. L-Norvaline (Sigma-Aldrich) was prepared at a concentration of 6.4 mg/ml in […], in a final volume of approx 0.5 ml, and stored at −20° C. until required.
Minimum inhibitory concentrations (MICs) were determined using the CLSI (Clinical and Laboratory Standards Institute, formerly NCCLS) recommended broth microdilution methodology [NCCLS, 2003] using defined media.

[6] = system: Klebsiella spp. (ESBL); assay: microbe, parasite or virus in culture; settings: Klebsiella
[7] = system: E. coli ATCC 25922 wild type and mutants; assay: MIC in M9 minimal media; settings: Escherichia coli, read-out: MICs in M9 minimal media
Procedure: as §1
(§2) Susceptibility tests were performed following the recommendations for aerobic bacteria (M7-A7) from the Clinical and Laboratories Standards Institute (CLSI).
(§3) The aminoacyl-tRNA synthetase enzyme, LeuRS, ensures the correct amino acid, leucine, is attached to tRNA^Leu. The LeuRS synthetic active site is capable of aminoacylating tRNA^Leu with amino acids structural similar to leucine (norvaline, norleucine, isoleucine and methionine). These mischarged tRNA^Leu are hydrolyzed by the editing domain, thus preventing the deleterious incorporation of incorrect amino acids into the growing polypeptide. The laboratory generated mutants were further tested for their ability to grow in defined media with exogenously added amino acids. Norvaline and norleucine, structurally similar to leucine, were tested in M9 minimal media. […]

[8] = system: P. aeruginosa ATCC 27853 wild type and mutants; assay: MIC in M9 minimal media; settings: Pseudomonas aeruginosa, read-out: MICs in M9 minimal media
Procedure: as §1, §2, §3

[9] = system: K. pneumoniae ATCC 13883 wild type and mutants; assay: MIC in M9 minimal media; settings: Klebsiella pneumoniae, read-out: MICs in M9 minimal media
Procedure: as §1, §2, §3

[10] = system: Citrobacter freundii (AmpC); assay: microbe, parasite or virus in culture; settings: Citrobacter freundii
[11] = system: clinical isolates from the four subjects (E. coli, P. mirabilis, K. pneumoniae); assay: Resistance in clinical isolates of the phase II clinical trial
Procedure: A comparative, dose-ranging study of GSK2251052 vs. imipenem-cilastatin in complicated lower urinary tract infection and pyelonephritis was undertaken with 210 targeted patients (20 actually enrolled) in a phase II clinical trial. The study was designed to determine the appropriate and safe dose for Phase III trials. Doses were 750 mg or 1500 mg twice a day, compared to an active comparator, with an independent safety review committee.
The phase II clinical trial identified four subjects who developed spontaneous resistance to GSK2251052 as evidenced by increased MICs (>32-fold) determined for the clinical isolates from the four subjects. Two of the resistant mutant strains identified were E. coli strains, one was a P. mirabilis strain, and one was a K. pneumoniae strain.

[12] = system: Providencia spp.(all); assay: microbe, parasite or virus in culture; settings: Providencia spp.(all)
[13] = system: Proteus vulgaris (WT); assay: microbe, parasite or virus in culture; settings: Proteus vulgaris (WT)
[14] = system: S. marcescens (AmpC); assay: microbe, parasite or virus in culture; settings: Serratia marcescens
[15] = read-out: susceptibility category of MIC90
[16] = GSK2251052 breakpoint, read-out: susceptibility category of MIC90

NC[C@H]1OB(O)c2c(OCCCO)cccc21 [GSK2251052, (S)-3-aminomethyl-7-(3-hydroxy-propoxy)-3h-benzo[c][1,2]oxaborol-1-ol] was tested, and the “frequency of resistance, range” value ([1]; measured at 24 h) was 10^−7 to 10^−8, the “frequency of resistance, range” value ([1]; three ATCC strains, 24 h and 48 h time points) was 10^−7 to 10^−8 and the MIC90 [2] was 1 µg/mL (≈ 4.22 µM). It also gave an MIC90 [2, 15] of less than 4 µg/mL, an MIC90 ([3]; 214 isolates, read-out: MIC90) of 1 µg/mL (≈ 4.22 µM) and an MIC90 [3, 16] of less than 4 µg/mL. The MIC90 [4] was 2 µg/mL (≈ 8.44 µM), the MIC90 [4, 15] was less than 4 µg/mL and the MIC ([5]; 24 h, subject E. Coli 1, day 1, first line, no LeuRS change) was 0.5 µg/mL. For the same compound, the MIC ([5]; 24 h, subject E. Coli 1, day 1, second line, no LeuRS change) was 0.25 µg/mL, the MIC ([5]; 48 h) was 16 µg/mL and the MIC ([5]; 72 h) was 16 µg/mL. The MIC ([5]; 96 h) was 16 µg/mL, the MIC90 [6] was 1 µg/mL (≈ 4.22 µM) and the MIC90 [6, 15] was less than 4 µg/mL. The MIC ([7]; ATCC25922, E 101(leuRS Y246H)) was 64 µg/mL (≈ 270 µM), the MIC ([7]; ATCC25922, E 102(leuRS D345G)) was greater than 256 µg/mL and the MIC ([7]; ATCC25922, E 107(leuRS G229S)) was 128 µg/mL (≈ 540 µM). For the same compound, the MIC ([7]; ATCC25922, E. coli ATCC25922) was 1 µg/mL (≈ 4.22 µM), the MIC ([8]; ATCC27853, P 101 (leuRS T256P)) was 128 µg/mL (≈ 540 µM) and the MIC ([8]; ATCC27853, P 106 (leuRS V342M)) was greater than 256 µg/mL. For the same compound, the MIC ([8]; ATCC27853, P 108 (leuRS T252P)) was greater than 256 µg/mL, the MIC ([8]; ATCC27853, P. aeruginosa ATCC27853) was 4 µg/mL (≈ 16.9 µM) and the MIC ([9]; ATCC13883, K 104(leuRS D345Y)) was greater than 256 µg/mL. The MIC ([9]; ATCC13883, K 105(leuRS G229R)) was greater than 256 µg/mL, the MIC ([9]; ATCC13883, K 107(leuRS S227F)) was 32 µg/mL (≈ 135 µM) and the MIC ([9]; ATCC13883, K 108(leuRS T248P)) was greater than 256 µg/mL. It also gave an MIC ([9]; ATCC13883, K 110(leuRS V338L)) of 64 µg/mL (≈ 270 µM), an MIC ([9]; ATCC13883, Klebsiella pneumoniae ATCC13883) of 2 µg/mL (≈ 8.44 µM) and an MIC90 [10] of 1 µg/mL (≈ 4.22 µM). For the same compound, the MIC90 [10, 15] was less than 4 µg/mL, the “rates of spontaneous resistance” value ([11]; baseline isolates tested) was ~10^−7 and the “increase of MICs in clinical isolates” value ([11]; four subjects who developed spontaneous resistance, phase II trial) was greater than 32 fold. It also gave an MIC90 ([12]; 68 isolates, read-out: MIC90) of 1 µg/mL (≈ 4.22 µM), a susceptibility category of MIC90 [12, 16] of less than 4 µg/mL and an MIC90 ([13]; 41 isolates, read-out: MIC90) of 1 µg/mL (≈ 4.22 µM). It also gave a susceptibility category of MIC90 [13, 16] of less than 4 µg/mL, an MIC90 [14] of 1 µg/mL (≈ 4.22 µM) and an MIC90 [14, 15] of less than 4 µg/mL.
